Legend:
[1] = system: RS4; 11 cells; assay: Efficacy in RS4:11 xenograft model; format: in vivo, mouse; details: Compound A 5 mg/kg
Method: Preparation of Compound PBS formulations for dosinq RS4:11 efficacy study: The appropriate amounts of Compound 1 were weighed into a volumetric flask. 10 mL Dulbecc's Phosphate Buffered Saline (PBS) was added and formulations were then stirred until the compound dissolved entirely.
Formulation of Compound A in 30% w/v HP-β-CD
30% w/v HP-β-CD vehicle was prepared. 3 g HP-β-CD (Roquette Kleptose, parenteral grade) was weighed into a 10 mL volumetric flask and 8 mL WFI added and stirred (or sonicated) to dissolve. Once dissolved the volume was made up to 10 mL with WFI.
The appropriate amount of Compound A was weighed into a 10 mL volumetric flask. 8 mL of 30% w/v HP-β-CD vehicle was then added and the formulation stirred. 1M MSA was added dropwise until the pH was reduced to about 2. The formulation was then stirred until the compound dissolved entirely. The pH was measured and adjusted to pH 4, dropwise using 1M MSA or NaOH. […] The final pH was measured and recorded and the formulation filtered through a 0.22 uM filter prior to administration. […]
On specific day, for each treated group, calculate Inhibition value by formula: Inhibition %=(CG−TG)*100/(CG−1), in which “CG” means the geometric mean of rtv of the control group and “TG” means the Geometric Mean of Relative Tumor Volume (rtv) of the treated group. “CG” should use the corresponding control group of the treated group when calculated. […]

[2] = system: NCI-H1048 tumor cells; assay: Human small cell lung cancer tumor model (NCI-H1048), single agent and combination; format: in vivo, C.B.-17 SCID female mice; details: AZD2014 15 mg/kg daily (qd), oral; p<0.05
Method: Compound 1 was formulated in citrate/phosphate buffer pH 5.0 containing 4.5% w/v glucose and dosed intravenously (iv) in a volume of 5 ml/kg. AZD2014 was formulated in 0.5% hydroxypropyl methylcellulose/0.1% Tween 80 and dosed oral in a volume of 10 ml/kg 5×10^6 NCI-H1048 tumor cells were injected subcutaneously in the right flank of C.B.-17 SCID female mice in a volume of 0.1 mL containing 50% matrigel. Tumor volume (measured by caliper) was calculated using the formula: length (mm) x width (mm)^2×0.52. For efficacy studies, mice were randomized based on tumor volume and growth inhibition was assessed by comparison of the differences in tumor volume between control and treated groups. Dosing began when mean tumor volume reached approximately 124 mm^3.

[3] = system: OCI-Ly10 tumor cells; assay: Human DLBCL xenograft model (OCI-Ly10), single agent and combination; format: in vivo, C.B.-17 SCID female mice; details: single agent acalabrutinib 12.5 mg/kg bid po
Method: 5×10^6 OCI-Ly10 tumor cells were injected subcutaneously in the right flank of C.B.-17 SCID female mice in a volume of 0.1 mL containing 50% matrigel. Compound 1 was formulated in citrate/phosphate buffer pH 5.0, diluted 1 to 10 with 5% glucose containing 1% w/v Kolliphor HS15, and dosed as a weekly intravenous (iv) administration at a volume of 5 mL/kg at a dose of 103 mg/kg (30 mg/kg API). Acalabrutinib was formulated in 0.5% hydroxypropyl methyl cellulose/0.2% Tween 80, and dosed twice a day (bid) as an oral (po) administration at a volume of 10 mL/kg at a dose of 12.5 mg/kg. Tumor volumes (measured by caliper), animal body weight, and tumor condition were recorded twice weekly for the duration of the study. The tumor volume was calculated using the formula: length (mm) x width (mm)^2×0.52. For efficacy studies, growth inhibition from the start of treatment was assessed by comparison of the differences in tumor volume between control and treated groups. Dosing began when mean tumor size reached approximately 166 mm3.

CN(CCO)CC[C@H](CSc1ccccc1)Nc1ccc(S(=O)(=O)NC(=O)c2ccc(N3CCC([C@@H](O)c4ccccc4-c4ccc(Cl)cc4)CC3)cc2)cc1S(=O)(=O)C(F)(F)F [Compound A]
% Inhibition Day (47) [1]: >100% | % Regression Day(47) [1]: 90%

CNC(=O)c1cccc(-c2ccc3c(N4CCOC[C@@H]4C)nc(N4CCOC[C@@H]4C)nc3n2)c1 [AZD2014, vistusertib]
anti-tumor activity, TGI [2]: 84%

CC#CC(=O)N1CCC[C@H]1c1nc(-c2ccc(C(=O)Nc3ccccn3)cc2)c2c(N)nccn12 [acalabrutinib]
tumor growth inhibition (TGI) [3]: ~58%

Source: patent US20220273807A1, “CONJUGATES FOR USE IN METHODS OF TREATING CANCER” (AstraZeneca AB, priority 2018, published 2022)
